In article PMC13575467, “Structural and functional characterisation of a reconstructed ancestral strigolactone receptor” (The Plant Journal, 2026):

How the values were obtained:
AtD14 [1] = biological target: T1, AtD14 (Arabidopsis thaliana, UniProt Q9SQR3); test: differential scanning fluorimetry; assay type: binding; details: Tm lowered (destabilisation); ligand 0-200 μM
T1 construct: gene D14; E. coli codon-optimised, 6xHis-SUMO fusion (pE-SUMO-Amp) from E. coli Rosetta, Ni-NTA, tag kept in assays
T1 sequence (Q9SQR3 1-267): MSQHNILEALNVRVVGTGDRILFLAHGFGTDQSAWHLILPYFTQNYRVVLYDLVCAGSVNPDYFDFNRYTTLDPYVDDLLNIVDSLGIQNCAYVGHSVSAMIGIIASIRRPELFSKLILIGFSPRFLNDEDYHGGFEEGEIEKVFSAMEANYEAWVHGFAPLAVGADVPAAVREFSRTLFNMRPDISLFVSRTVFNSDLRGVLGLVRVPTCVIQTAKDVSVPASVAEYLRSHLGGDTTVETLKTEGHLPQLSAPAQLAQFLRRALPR

ancD14 (ancestral D14) [2] = biological target: T2, ancD14 (ancestral D14) (synthetic construct, UniProt Z9A6V6BWX9); test: differential scanning fluorimetry; assay type: binding; details: Tm lowered (destabilisation); ligand 0-200 μM
T2 sequence (Z9A6V6BWX9 1-265): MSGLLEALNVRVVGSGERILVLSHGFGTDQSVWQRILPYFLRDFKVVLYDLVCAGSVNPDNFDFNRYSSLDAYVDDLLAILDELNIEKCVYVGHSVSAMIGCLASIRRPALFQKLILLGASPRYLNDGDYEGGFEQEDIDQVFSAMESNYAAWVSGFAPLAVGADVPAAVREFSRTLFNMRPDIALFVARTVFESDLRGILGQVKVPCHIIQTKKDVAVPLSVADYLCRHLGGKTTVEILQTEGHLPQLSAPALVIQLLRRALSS

AtD14 [3] = biological target: T1, AtD14; test: competition of dYLG hydrolysis; assay type: biochemical; details: 5 μM dYLG, 0-50 μM competitor, 100 ng protein
ancD14 (ancestral D14) [4] = biological target: T2, ancD14 (ancestral D14); test: differential scanning fluorimetry; assay type: binding; details: Tm lowered (destabilisation); ligand 0-200 μM; remark: listed apart in the source
ancD14 (ancestral D14) [5] = biological target: T2, ancD14 (ancestral D14); test: competition of dYLG hydrolysis; assay type: biochemical; details: 5 μM dYLG, 0-50 μM competitor, 100 ng protein
AtD14 [6] = biological target: T1, AtD14; test: differential scanning fluorimetry; assay type: binding; details: Tm lowered (destabilisation); ligand 0-200 μM; remark: listed apart in the source

dTm (decrease in melting temperature) (AtD14 [1]) [°C]	dTm (decrease in melting temperature) (ancD14 (ancestral D14) [2]) [°C]	SMILES	IC50 (AtD14 [3])	dTm (ancD14 (ancestral D14) [4])	IC50 (ancD14 (ancestral D14) [5])	dTm (AtD14 [6])
6.1	6.6	CC1=C[C@H](O/C=C2/C(=O)O[C@@H]3c4ccccc4C[C@H]23)OC1=O [GR24^5DS]	GR24^5DS was a very effective competitor for AtD14			
		CC1=C[C@@H](O/C=C2/C(=O)O[C@H]3c4ccccc4C[C@@H]23)OC1=O [GR24^ent-5DS]	AtD14 activity was inhibited by all four enantiomers	albeit with a comparatively muted response to GR24^ ent‐5DS	GR24^ ent‐5DS also competed well with ancD14	AtD14 was thermally destabilised by both GR24^5DS and GR24^ ent‐5DS
		O=C1C=C[C@@H](O/C=C2/C(=O)O[C@H]3c4ccccc4C[C@@H]23)O1 [dGR24^ent-5DS]	AtD14 activity was inhibited by all four enantiomers			
